Measured values reported in publication PMC8536124 (International Journal of Molecular Sciences, 2021).
Entries after “also recorded” stand apart in the source; their conditions may differ. Like-named read-outs stand apart in the source and are kept apart here.

How the values were obtained:
[1] = system: HeLa, MCF-7, HepG2, B16, and A375 cancer cell lines; design: method as in PMID 21496972; conditions: MCF-7, HepG2, B16, A375; cited from earlier work
CCRF-CEM cell line = system: CCRF-CEM cell line; design: method as in PMID 27425639; conditions: cited from earlier work
A498 = experiment: NCI-60 screening (SRB); format: cell-based, human; conditions: A498 renal cancer; 1 dose 10 µM
[2] = system: NCI-60 cancer cell line panel; experiment: NCI-60 screening (SRB), full panel; format: cell-based, human; conditions: 1 dose 10 µM; for activity at 10 µM: Homo sapiens, 60 cell lines, 48 h
From the text: (§1) The experimental data allow the assessment of the cytostatic effect, indicated by growth inhibition values ranging between 0 and 100, as well as of the cytotoxic effect, indicated by negative values.
(§2) The mean GI50 (molar concentration of the compound that inhibits 50% net cell growth), TGI (molar concentration of the compound leading to the total inhibition), and LC50 (molar concentration of the compound leading to 50% net cell death (presented in negative logarithm)) values across each cell line are shown in Table 2.
(§3) The selectivity index (SI), calculated as the ratio between the full panel MG_MID60 (μM) of compounds 4, 6, and 9 by their respective subpanels MG_MID of the cell line (μM), was introduced as a quantification tool for the selectivity of each compound in terms of anticancer effect (Table 3).
(§4) Primary anticancer assays were performed according to the NCI protocol, as described elsewhere (see e.g., http://dtp.nci.nih.gov accessed on 1 November 2018). The compounds were added at a single concentration, and the cell cultures were incubated for 48 h. The end point determinations were made with a protein-binding dye, sulforhodamine B (SRB). […] The percentage of growth was evaluated spectrophotometrically versus controls not treated with test agents after 48 h exposure and using SRB protein assay to estimate cell viability or growth. Three antitumor activity dose-response parameters were calculated for each cell line. Furthermore, mean graph midpoints (MG_MID) were calculated for each of the parameters, giving an average activity parameter over all cell lines for the tested compound. For the MG_MID calculation, insensitive cell lines were included with the highest concentration tested.

HL-60(TB) = experiment: NCI-60 screening (SRB); format: cell-based, human; conditions: HL-60(TB) (Leukemia); 1 dose 10 µM
Leukemia = experiment: NCI-60 screening (SRB), subpanel; format: cell-based; conditions: leukemia cancer cell lines; 1 dose 10 µM
From the text: as §1, §2, §3, §4

CAKI-1 = experiment: NCI-60 screening (SRB); format: cell-based, human; conditions: CAKI-1 (Renal cancer); 1 dose 10 µM
LOX IMVI = experiment: NCI-60 screening (SRB); format: cell-based, human; conditions: LOXIMVI (Melanoma); 1 dose 10 µM
[3] = system: KB oral epidermoid cancer cells; design: method as in doi:10.1007/BF02974180, PMID 15694457; conditions: cited from earlier work
[4] = system: HONE-1 nasopharyngeal cancer cells; design: method as in doi:10.1007/BF02974180, PMID 15694457; conditions: cited from earlier work
[5] = system: HT29 colorectal cancer cells; design: method as in doi:10.1007/BF02974180, PMID 15694457; conditions: cited from earlier work
HCT15 colon cancer cells = system: HCT15 colon cancer cells; design: method as in doi:10.1007/BF02974180, PMID 15694457; conditions: cited from earlier work
[6] = system: NIH3T3 noncancer murine fibroblast cells; design: method as in PMID 26044356; conditions: NIH3T3 noncancer murine fibroblasts; cited from earlier work
[7] = system: A549 non-small lung cancer cells; design: method as in doi:10.1007/BF02974180, PMID 15694457; conditions: cited from earlier work
[8] = system: T-lymphoblastic leukemia, breast adenocarcinoma, and cervical cancer cells; conditions: cited from earlier work

Molecule	Positive Cytostatic Effect (cell lines with percent growth 0 to 50 / total) [2]	Positive Cytotoxic Effect (cell lines with percent growth <0 / total) [2]	antiproliferative effect in one dose primary screening [2]	activity at 10 µM ([2]; read-out: Mean Growth, %) [%]	activity at 10 µM ([2]; read-out: Range of Growth, %) [%]	other results
3,23-dihydroxy-17-piperazinyl betulinic amide	–	–	–	–	–	IC50 [1]: < 10 µM
C=C(C)C1CCC2(C(=O)N3CCNCC3)CCC3(C)C(CCC4C5(C)CCC(O)C(C)(C)C5CCC43C)C12 (centres unmarked) [Betulinic acid piperazinyl amide]	–	–	–	–	–	IC50 (CCRF-CEM cell line): 0.8 µM
CCN1CCN(C(=O)[C@]23CCC(C)(C)C[C@H]2C2=CC[C@@H]4[C@@]5(C)CCC(=O)C(C)(C)[C@@H]5CC[C@@]4(C)[C@]2(C)CC3)CC1 [Compound 3, N-(3-oxo-olean-12-en-28-oyl)-ethylpiperazine]	5/59	7/59	moderate growth inhibition activity	46	-35.8 to 80.4	Growth % (A498): −7.95%; Growth % (HL-60(TB)): −35.82%; growth percentages, range (Leukemia): −35.82 to 37.47%
CCN1CCN(C(=O)[C@]23CCC(C)(C)C[C@H]2C2=CC[C@@H]4[C@@]5(C)C/C(=C/c6ccccn6)C(=O)C(C)(C)[C@@H]5CC[C@@]4(C)[C@]2(C)CC3)CC1 [Compound 5, N-(2-{2-Pyridinylidene}-3-oxoolean-12-en-28-oyl)-ethylpiperazine]	0/59	0/59	do not exhibit antiproliferative effects; also recorded: do not induce any significant antiproliferative activity	86.7	49.2 to 115	Growth % (CAKI-1): 49.25%
CCN1CCN(C(=O)[C@]23CC[C@@H](C)[C@H](C)[C@H]2C2=CC[C@@H]4[C@@]5(C)C/C(=C/c6ccccn6)C(=O)C(C)(C)[C@@H]5CC[C@@]4(C)[C@]2(C)CC3)CC1 [Compound 8]	0/59	0/59	do not exhibit antiproliferative effects; also recorded: do not induce any significant antiproliferative activity	92.4	74.8 to 108	Growth % (LOX IMVI): 74.76%
C[C@H]1[C@H](C)CC[C@]2(C(=O)O)CC[C@]3(C)C(=CC[C@@H]4[C@@]5(C)CCC(=O)C(C)(C)[C@@H]5CC[C@]43C)[C@H]12 [Ursonic acid]	–	–	–	–	–	IC50 [3]: 4 µM; IC50 [4]: 5.2 µM; IC50 [5]: 6.3 µM; IC50 (HCT15 colon cancer cells): 4.6 µM; IC50 [6]: > 50 µM; IC50 [7]: 7.7 µM
C=C(C)C1CCC2(C(=O)N3CCNCC3)CCC3(C)C(CCC4C5(C)CCC(O)C(C)(C)C5CCC43C)C12 (centres unmarked) [piperazine amide of betulinic acid]	–	–	–	–	–	cytotoxicity [8]: 0.7 to 7.8 µM
